For one assay, the target named is T1, Leucine aminopeptidase (Plasmodium falciparum 3D7, UniProt Q8IL11).
T1 sequence (Q8IL11 whole entry): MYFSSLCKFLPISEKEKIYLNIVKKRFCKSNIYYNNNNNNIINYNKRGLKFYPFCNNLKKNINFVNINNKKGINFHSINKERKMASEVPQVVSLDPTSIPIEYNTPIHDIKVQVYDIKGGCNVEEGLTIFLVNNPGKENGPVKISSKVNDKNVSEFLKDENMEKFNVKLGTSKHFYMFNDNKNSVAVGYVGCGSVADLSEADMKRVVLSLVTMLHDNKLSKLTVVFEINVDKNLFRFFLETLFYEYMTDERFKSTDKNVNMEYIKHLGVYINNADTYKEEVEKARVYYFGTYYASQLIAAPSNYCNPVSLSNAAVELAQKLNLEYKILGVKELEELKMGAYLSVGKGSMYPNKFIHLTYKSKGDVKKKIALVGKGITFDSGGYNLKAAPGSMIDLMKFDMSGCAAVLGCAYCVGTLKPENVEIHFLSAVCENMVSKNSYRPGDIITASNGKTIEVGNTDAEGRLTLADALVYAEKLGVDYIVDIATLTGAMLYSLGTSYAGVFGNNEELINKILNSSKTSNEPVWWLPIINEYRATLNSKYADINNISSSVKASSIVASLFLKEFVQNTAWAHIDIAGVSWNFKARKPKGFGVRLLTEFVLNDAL
Description: P. falciparum M17LAP inhibitors, primary screen, biochemical, fluorogenic H-Leu-NHMec substrate, 1536-well (AID 1619). The class given is functional.

Another assay deals with T2, Aspartyl aminopeptidase (Plasmodium falciparum 3D7, UniProt Q8I2J3).
T2 sequence (Q8I2J3 whole entry): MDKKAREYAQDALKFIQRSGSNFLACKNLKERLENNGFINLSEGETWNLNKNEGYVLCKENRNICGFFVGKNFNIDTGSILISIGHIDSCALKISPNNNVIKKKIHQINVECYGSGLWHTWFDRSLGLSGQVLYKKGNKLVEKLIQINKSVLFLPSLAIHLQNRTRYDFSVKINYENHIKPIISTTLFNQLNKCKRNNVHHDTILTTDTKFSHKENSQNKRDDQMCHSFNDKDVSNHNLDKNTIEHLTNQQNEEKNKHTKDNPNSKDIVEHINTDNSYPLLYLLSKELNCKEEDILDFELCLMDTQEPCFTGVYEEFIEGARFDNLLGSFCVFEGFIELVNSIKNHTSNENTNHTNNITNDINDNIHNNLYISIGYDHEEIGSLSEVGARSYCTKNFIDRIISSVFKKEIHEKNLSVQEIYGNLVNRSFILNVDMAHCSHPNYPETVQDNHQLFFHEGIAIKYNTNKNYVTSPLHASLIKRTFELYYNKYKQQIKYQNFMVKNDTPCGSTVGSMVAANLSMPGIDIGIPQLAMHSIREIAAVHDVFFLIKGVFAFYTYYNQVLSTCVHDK
Description: Counterscreen for inhibitors of M1 and M17 aminopeptidases: QFRET-based biochemical high throughput dose response assay for inhibitors of the Plasmodium falciparum M18 Aspartyl Aminopeptidase (PFM18AAP). [Related PubChem assays: 1619 (Screening assay (M17LAP inhibitors).), 1445 (Screening assay (M1AAP inhibitors).)].

A further assay concerns the target Procathepsin L (Homo sapiens, UniProt P07711). Description: cathepsin L inhibitors, dose response, counter-screen for M1/M17 aminopeptidase inhibitor project, biochemical, QFRET, 1536-well (AID 2214). For orientation: A counterscreen serves to expose hits that act by an unwanted route or on another target.
In assay [1] the target is G-protein coupled receptor 55 (Homo sapiens, UniProt Q9Y2T6). Description: GPR55 agonists via beta-arrestin recruitment, primary screen, imaging, U2OS cells, beta-arrestin-GFP redistribution (AID 1961). The assay is classed as functional. On the technique in general: Activated receptors often draw arrestin, which recruitment assays turn into a signal.
G-protein coupled receptor 55, sequence (Q9Y2T6 whole entry): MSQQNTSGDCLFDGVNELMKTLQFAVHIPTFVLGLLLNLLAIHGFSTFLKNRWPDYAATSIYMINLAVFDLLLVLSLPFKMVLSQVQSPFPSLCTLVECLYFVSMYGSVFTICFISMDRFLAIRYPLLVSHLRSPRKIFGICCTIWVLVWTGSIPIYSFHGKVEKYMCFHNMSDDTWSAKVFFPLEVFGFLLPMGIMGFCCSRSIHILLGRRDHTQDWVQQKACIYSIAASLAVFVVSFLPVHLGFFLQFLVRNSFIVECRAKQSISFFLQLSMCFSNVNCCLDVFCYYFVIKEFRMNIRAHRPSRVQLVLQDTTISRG
For the next assay, the target named is T3, Coagulation factor XII (Homo sapiens, UniProt P00748).
T3 sequence (P00748 whole entry): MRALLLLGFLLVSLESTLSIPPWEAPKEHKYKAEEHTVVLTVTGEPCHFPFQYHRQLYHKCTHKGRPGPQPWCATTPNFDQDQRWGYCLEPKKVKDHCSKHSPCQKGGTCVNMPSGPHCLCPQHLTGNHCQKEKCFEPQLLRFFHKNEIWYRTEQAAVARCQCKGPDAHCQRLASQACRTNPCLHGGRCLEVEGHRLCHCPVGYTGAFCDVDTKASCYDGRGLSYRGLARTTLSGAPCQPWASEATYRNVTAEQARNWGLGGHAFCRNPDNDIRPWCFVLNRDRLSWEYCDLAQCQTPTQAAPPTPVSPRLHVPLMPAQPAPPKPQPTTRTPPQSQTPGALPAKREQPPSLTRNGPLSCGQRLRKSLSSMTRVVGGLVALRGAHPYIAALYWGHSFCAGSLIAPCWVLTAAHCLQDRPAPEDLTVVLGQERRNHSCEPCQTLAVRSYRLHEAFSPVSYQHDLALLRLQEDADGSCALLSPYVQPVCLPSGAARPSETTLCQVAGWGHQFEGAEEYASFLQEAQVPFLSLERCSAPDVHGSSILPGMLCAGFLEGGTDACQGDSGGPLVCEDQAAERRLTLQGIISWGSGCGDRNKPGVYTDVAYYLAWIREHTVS
Description: FXIIa inhibitor potency, concentration-response, biochemical (AID 716). The assay is classed as functional.

A further assay has as its target Hexokinase (Trypanosoma brucei, UniProt Q38C41). Description: Confirmation assay for inhibitors of Trypanosoma brucei hexokinase 1-Analogue-first series. [Related pubchem assays (depositor defined):AID1430, AID1632, AID2516, AID2560, AID2579, AID2600, AID449725, AID492951]. The assay is classed as functional.
The target in assay [2] is Glucose-6-phosphate 1-dehydrogenase (Homo sapiens, UniProt P11413). The assay can be described thus: human G6PD enzyme inhibitors, dose response, selectivity assay for P. falciparum G6PD inhibitor project, biochemical, fluorescence (AID 504792). The class given is functional.
Glucose-6-phosphate 1-dehydrogenase, sequence (P11413 whole entry): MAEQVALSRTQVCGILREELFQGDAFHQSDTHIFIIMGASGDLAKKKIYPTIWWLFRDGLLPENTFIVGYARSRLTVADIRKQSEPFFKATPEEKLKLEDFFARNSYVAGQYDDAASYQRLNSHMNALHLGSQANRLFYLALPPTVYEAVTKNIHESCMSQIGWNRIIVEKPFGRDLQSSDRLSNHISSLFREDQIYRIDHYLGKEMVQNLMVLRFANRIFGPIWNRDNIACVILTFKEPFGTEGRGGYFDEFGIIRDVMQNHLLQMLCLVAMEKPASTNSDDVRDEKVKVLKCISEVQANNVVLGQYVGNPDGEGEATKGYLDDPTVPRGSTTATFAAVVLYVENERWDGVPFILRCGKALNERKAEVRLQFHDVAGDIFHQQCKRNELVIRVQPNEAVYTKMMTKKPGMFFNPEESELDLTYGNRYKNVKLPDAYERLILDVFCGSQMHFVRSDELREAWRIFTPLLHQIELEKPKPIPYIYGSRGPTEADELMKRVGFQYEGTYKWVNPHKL
In assay [3] the target is T4, Polyadenylate-binding protein 1 (Homo sapiens, UniProt P11940). The assay can be described thus: PABP1 MLLE–PAM2 interaction inhibitors, dose response, miRNA deadenylation inhibitor project, biochemical, fluorescence polarization, Cy5-PAM2 peptide, secondary (AID 602260). The assay is classed as functional. Conditions: read-out: IC50_Mean. For orientation: In fluorescence polarisation assays a small probe gives low polarisation when free and higher when bound to something large.
T4 sequence (P11940 whole entry): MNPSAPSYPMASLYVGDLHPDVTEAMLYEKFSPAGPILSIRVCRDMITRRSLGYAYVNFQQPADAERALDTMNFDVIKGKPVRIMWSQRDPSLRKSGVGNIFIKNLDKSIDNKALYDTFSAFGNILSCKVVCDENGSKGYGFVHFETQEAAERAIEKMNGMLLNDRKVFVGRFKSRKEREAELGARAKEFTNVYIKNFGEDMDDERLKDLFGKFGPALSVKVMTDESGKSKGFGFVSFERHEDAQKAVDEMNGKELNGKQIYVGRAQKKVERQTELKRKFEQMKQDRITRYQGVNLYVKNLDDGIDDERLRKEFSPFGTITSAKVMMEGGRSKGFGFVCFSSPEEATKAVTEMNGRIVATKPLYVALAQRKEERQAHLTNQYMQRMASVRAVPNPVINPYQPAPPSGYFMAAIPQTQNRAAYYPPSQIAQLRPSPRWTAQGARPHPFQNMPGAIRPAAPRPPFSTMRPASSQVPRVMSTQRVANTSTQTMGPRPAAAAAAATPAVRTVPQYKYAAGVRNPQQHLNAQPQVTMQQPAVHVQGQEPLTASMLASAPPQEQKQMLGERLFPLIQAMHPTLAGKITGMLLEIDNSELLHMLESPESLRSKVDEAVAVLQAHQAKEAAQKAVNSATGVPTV

Assay [4] deals with T4, Polyadenylate-binding protein 1. The assay can be described thus: PABP1 MLLE–PAM2 binding inhibitor potency, dose response, biochemical, fluorescence polarization, FITC-PAM2 peptide (AID 602259). The class given is functional. Conditions: read-out: IC50_Mean.

The structures appear in SMILES notation. Calls of active or inactive are those of the source. A value given as a limit tells only on which side of the number the result lay.

Usually EC50 stands for the concentration giving half of the maximal effect.

Hexokinase, sequence (Q38C41 whole entry): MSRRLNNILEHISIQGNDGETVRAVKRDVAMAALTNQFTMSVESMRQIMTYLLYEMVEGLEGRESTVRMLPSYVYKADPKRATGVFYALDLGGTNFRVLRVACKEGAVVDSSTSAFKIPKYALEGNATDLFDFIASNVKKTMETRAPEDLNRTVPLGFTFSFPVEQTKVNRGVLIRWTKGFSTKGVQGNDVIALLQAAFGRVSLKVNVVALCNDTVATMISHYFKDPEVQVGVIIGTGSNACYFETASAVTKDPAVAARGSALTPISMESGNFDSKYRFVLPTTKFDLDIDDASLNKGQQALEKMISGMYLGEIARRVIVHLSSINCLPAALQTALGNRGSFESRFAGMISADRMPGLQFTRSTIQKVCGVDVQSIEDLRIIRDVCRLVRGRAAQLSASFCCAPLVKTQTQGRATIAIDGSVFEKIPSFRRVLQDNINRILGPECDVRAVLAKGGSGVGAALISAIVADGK
Procathepsin L, sequence (P07711 whole entry): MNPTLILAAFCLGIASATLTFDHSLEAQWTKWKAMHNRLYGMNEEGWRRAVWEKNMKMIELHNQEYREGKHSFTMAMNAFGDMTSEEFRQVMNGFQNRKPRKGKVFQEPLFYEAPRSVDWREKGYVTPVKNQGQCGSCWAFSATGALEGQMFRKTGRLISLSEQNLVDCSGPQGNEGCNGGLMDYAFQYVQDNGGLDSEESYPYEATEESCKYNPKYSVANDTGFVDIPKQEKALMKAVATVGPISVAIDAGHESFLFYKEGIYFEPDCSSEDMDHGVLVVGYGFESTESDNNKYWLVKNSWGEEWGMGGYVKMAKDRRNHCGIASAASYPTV

In the case of `O=C(CSc1nnc(Nc2ccccc2)s1)NN1C(=O)NC2(CCCCC2)C1=O`, the IC50 is < 1 µM (active) at Leucine aminopeptidase, > 73.5 µM (not active) at Aspartyl aminopeptidase and > 59.6 µM (not active) against Procathepsin L. Further, the EC50 in assay [1] was 30.3 µM (inactive).
Regarding `COc1ccc2c(c1)CCc1c(C(=O)NCc3cccnc3)noc1-2`, on Coagulation factor XII, the IC50 was 3.76 µM (active).
For `N#Cc1ccc2c(=O)n(-c3ccccc3)sc2c1`, the IC50 on Hexokinase is 6.66 µM (active); in assay [2], 7.11 µM (active); in assay [3] it was > 66 µM (inactive); in [4], > 66 µM (inactive).

The values above are taken from ChEMBL document CHEMBL1201862, “PubChem BioAssay data set” (2004).
